Data from PMC10305119, “Analogs of 6-Bromohypaphorine with Increased Agonist Potency for α7 Nicotinic Receptor as Anti-Inflammatory Analgesic Agents” (Marine Drugs, 2023).
Entries after “also recorded” stand apart in the source; their conditions may differ.

How the values were obtained:
[1] = test system: CFA-induced inflammation; experiment: CFA-induced inflammation test; type: in vivo, ICR mice; conditions: mice; for analgesia in hot plate test: 2 h after injection, 53 °C, doses 0.1, 0.5, 1 mg/kg; for oedema (paw diameter): intramuscular 0.1, 0.5, 1 mg/kg, measured 6-48 h
Procedure: Anti-inflammatory effect of two analogs of 6-substituted hypaphorine (6ND and 6ID) was tested in a model with subplantar administration of complete Freund’s adjuvant (CFA) in mice. CFA was injected once into the footpad to induce oedema in 24 h. Oedema was measured with an electronic calliper. Immediately after paw measurement, 6ND or 6ID was injected intramuscularly in doses 1, 0.5, and 0.1 mg/kg. Paws were measured at 6, 12, 24, and 48 h after administration of 6ND or 6ID. […] End points at 48 h of drug treatments at dose […] have been analyzed in terms of paw diameter normalized to the maximal oedemic levels in each group (Figure 6d).
Additionally, after 2 h following the drug injection, the analgesia test was conducted on the “hot plate” preheated to 53 °C. The time of withdrawal or licking of the affected paw was assessed for each animal.
The development of the inflammation and thermal hyperalgesia of the paw was induced by the injection of the oil/saline (1:1) CFA emulsion (Sigma-Aldrich, St. Louis, MO, lot # WH327536) into the subplantar surface of the hind paw of the ICR mice (20 µL/paw) 24 h before the measurement. Oedema was measured with an electronic calliper. Immediately after paw measurement, 6ND or 6ID were injected intramuscularly in doses: 1, 0.5, and 0.1 mg/kg. Paws were measured at 6, 12, 24, and 48 h after administration of 6ND or 6ID. After 2 h following the drug injection, the inflamed paw withdrawal or licking latencies to thermal stimulation were measured on a hot plate device (Hot Plate Analgesia Meter, Columbus Instruments) with a set temperature of 53 ± 0.1 °C and a cut-off time of 60 s.

[2] = test system: carrageenan-induced inflammation; experiment: Carrageenan-induced inflammation test; type: in vivo, ICR mice; conditions: for oedema (paw diameter): 0.5 mg/kg (hypaphorine and 6ID also 1 mg/kg); for analgesia in von Frey test: versus vehicle
Procedure: Subplantar 1% carrageenan injections in a volume of 30 μL into the right hind paw were carried out to generate an inflammation model in mice. The paw volume was measured beforehand using an electronic calliper. The maximum effect of the introduction of carrageenan was observed after 3 h. […] The control group was treated with saline (0.9% NaCl). Two hours after the drug administration (total 3 h from carrageenan injection), the size of the pad of the right hind paw was measured, the von Frey test and paw pressure analgesimeter pain sensitivity assessment were performed.
Carrageenan inflammation was induced by injecting 30 μL of a 1% carrageenan suspension (Sigma-Aldrich, lot #SLBK3896V) into the subplantar surface of the ICR mice hind paw. The oedema degree of the carrageenan-induced paw was evaluated using an electronic calliper by the volume difference of the animal’s right hind paw after (3 h from carrageenan injection) and before being hurt by carrageenan.
[…] The control group was treated with saline (0.9% NaCl).
Antinociceptive testing was performed 2 h after the drug administration (3 h after carrageenan injection).
Nociceptive testing was performed by utilizing the von Frey test and Paw pressure test.
The animals were placed in 20 cm × 20 cm Plexiglas boxes equipped with a metallic mesh floor. Animals were allowed to habituate themselves to their environment for 15 min before the test. […] The paw sensitivity threshold was defined as the minimum force required to elicit a robust and immediate withdrawal reflex of the paw. Spontaneous movements associated with locomotion were not considered as a withdrawal response. Measurements were repeated 3 times and the final value was obtained by averaging the 3 measurements.
Mechanical hyperalgesia was measured as a paw withdrawal response to a gradual increase of mechanical pressure applied by the Rodent pinchers—analgesia meter (model BIO-RP-M; BioSeb, Vitrolles, France). The influence of stimulation on each hind paw was recorded three times. The maximum force applied to the paw was recorded as the grams (g) of force on the dynamometer.

SMILES	analgesia in hot plate test ([1]; listed as 6ID)	oedema (paw diameter) ([1]; listed as 6ID)	oedema (paw diameter) ([2]; mice, 2 h after drug, listed as 6ID)	analgesia in von Frey test ([2]; mice, 2 h after drug)	carrageenan-induced allodynia and hyperalgesia ([2]; rodents, doses 0.1 and 0.5 mg/kg)	analgesia in hot plate test ([1]; listed as 6ND)	oedema (paw diameter) ([2]; mice, 2 h after drug, listed as 6ND)	analgesia in hot plate test [1]	oedema reduction at 48 h end point, normalized to maximal oedema ([1]; dose 0.5, 48 h)	oedema (paw diameter) ([1]; listed as Hypaphorine)	oedema (paw diameter) ([1]; listed as hypaphorine)	analgesia in paw pressure test (mechanical hyperalgesia) ([2]; mice, 2 h after drug)	oedema (paw diameter) ([2]; mice, 2 h after drug)	oedema (paw diameter) ([2]; mice, 2 h after drug, listed as synthetic hypaphorine)
COC(=O)[C@@H](Cc1c[nH]c2cc(I)ccc12)[N+](C)(C)C [Compound 1, (D)-6-iodohypaphorine methyl ester]	effective in the hot plate test at 0.5 as well as at 1 mg/kg; also recorded: at doses 0.5 and 1 mg/kg showed significant analgesia	significantly reduced by 6ID at 0.5 mg/kg starting from 12 h of treatment; also recorded: effective against oedema at doses 0.5 and 1 mg/kg	marked decrease in paw diameter at doses 0.5 and 1 mg/kg	significant analgesia	decreased carrageenan-induced allodynia and hyperalgesia									
COC(=O)C(Cc1c[nH]c2cc([N+](=O)[O-])ccc12)[N+](C)(C)C (stereo not shown) [Compound 5, methyl ester of 6-nitrohypaphorine]				significant analgesia		significant analgesia in hot plate test only at 0.1 mg/kg; also recorded: at a dose of 0.1 mg/kg has a pronounced analgesic effect, but higher doses did not show a difference from the control group	moderate anti-oedemic effect at a dose of 0.5 mg/kg							
C[N+](C)(C)[C@H](Cc1c[nH]c2ccccc12)C(=O)[O-] [Compound 16, L-hypaphorine, reference compound]				significant analgesia				analgesia in hot plate test at all tested doses from 0.1 to 1 mg/kg	markedly less effective reduction of oedema than 6ND and 6ID	demonstrated anti-oedemic properties	significantly reduced edema in a concentration-dependent manner at doses 0.1–1 mg/kg	strong evidence of analgesia in algesimeter and von Frey tests	only a tendency to decrease oedema, not statistically significant	No significant effect
